The test system of assay [1] is Fe^2+-induced lipid peroxidation in rat brain homogenate. Briefly: Effect on the Fe^2+-induced (non-enzymatically induced) lipid peroxidation in brain homogenate. The format is biochemical, rat (Hannover-Wistar). To be noted: for IC50: rat brain homogenate, 20 min, 37° C., pH 7.4, 8 mM ferrous diammonium disulfate solution (5 μl), malondialdehyde at 535 nm, read-out: Inhibition of the Fe^2+-induced lipid peroxidation IC50; for antioxidant activity compared with tirilazad mesylate / inhibition of the Fe^2+-induced lipid peroxidation compared with silymarin or ellagic acid / inhibitory effect on the Fe^2+-induced lipid peroxidation compared with DL-α-tocopherol: in words, from Table I.
Description: Effect on the Fe^2 +-induced lipid peroxidation in brain homogenate
After decapitating Hannover-Wistar rats weighing 150-220 g each, the whole brain was homogenized in 9 volumes of icecold Krebs-Ringer's buffer containing 15 mM 4-(2-hydroxyethyl)-1-(piperazinylethanesulfonic acid (abbreviated: HEPES, pH 7.4), 140 mM sodium chloride, 3.6 mM potassium chloride, 1.5 mM calcium chloride, 0.7 mM magnesium chloride, 1.4 mM potassium dihydrogen phosphate and 10 mM glucose!. Then, the protein content of the solution was determined and adjusted to 10 mg/ml concentration.
After adding the inhibitory agent to be tested in a volume of 5 ml to 200 μl of the homogenate, the incubation mixture was incubated at 37° C. for 20 minutes. The Fe^2+ -induced lipid peroxidation was accomplished by adding 5 μl of 8 mM ferrous diammonium disulfate Fe(NH4)2 (SO4)2 ! solution. After passing of the incubation time, the reaction was stopped by adding 1 ml of a stopping solution containing 0.8M hydrogen chloride in trichloroacetic acid solution of 12.5%; then the samples were centrifuged at 2000×g in a Janetzki apparatus at 4° C. for 10 minutes.
To 0.5 ml portion of the supernatant, 1 ml of 1% thiobarbituric acid solution was added, then the samples were placed in a water bath of 100° C. for 20 minutes. The color intensity developed was determined at 535 nm with the aid of a Hitachi 150-20 spectrophotometer by using malondialdehyde bis(diethylacetal) as reference compound.

Assay [2] deals with NADPH-induced lipid peroxidation in rat brain microsomes. Put plainly: Inhibition of the NADPH-induced (enzymatically induced) lipid peroxidation in brain microsomes. Type of assay: biochemical, rat (male Hannover-Wistar). The following applies: 20 min, 37° C., pH 6.8, 0.4 mM NADPH, malondialdehyde at 535 nm, N.I.: no inhibition. From the text: The pharmacological effect of the eburnamenine derivatives of the formula (I) was studied as described hereinafter. […] The antioxidative effect was investigated on microsomes prepared from rat brain J. Neurochem. 37, pages 422-426 (1981)! and on rat brain homogenate J. Biol Chem. 262, pages 10438-10440 (1987)!. Inhibition of the NADPH-induced lipid peroxidation in brain microsomes Male Hannover-Wistar rats with a body weight of 150-250 g were used for the preparation of microsomes. After decapitation, the whole brain of the rat was removed and homogenized in a 10-fold volume of ice-cold 0.25M saccharose solution. The homogenate was centrifuged in a Hitachi CR 26H equipment at 15000×g at 4° C. for 10 minutes, then the supernatant was collected and centrifuged in a Hitachi SC[…] equipment at 78000×g at 4° C. for 60 minutes. After suspending the precipitate in 0.15M potassium chloride solution, the protein content of the obtained solution was determined and then adjusted to 10 mg/ml concentration. The microsome thus obtained was frozen in a dry ice-acetone mixture and stored at -70° C. until use. The components of the incubation mixtures were: 50 mM tris(hydroxymethyl)aminomethane hydrochloride (pH 6.8), 0.2 mM ferric chloride, 1 mM potassium dihydrogen phosphate, 0.5 mM adenosine-5'-diphosphate, 0.2 mg of microsomes as well as the compound to be tested. The incubation was carried out with a final volume of 1 ml and an incubation time of 20 minutes at a temperature of 37° C. The lipid peroxidation was induced by adding 0.4 mM NADPH ([…], reduced form). […] The formation of malondialdehyde was determined by using thiobarbituric acid. After stopping the reaction, 1 ml of 1% thiobarbituric acid solution each was added to the samples, which were then 10 placed in a water bath of about 100° C. for 10 minutes. Subsequently, the samples were centrifuged at 2000×g in a Janetzki K70 apparatus at 4° C. for 10 minutes. The absorbance value of the colored supernatant was measured at 535 nm in a Hitachi 150-20 spectrophotometer. Malondialdehyde bis(diethylacetal) was used as reference compound. The IC50 values of the compounds were determined on the basis of the concentration/effect correlations thereof and are indicated in Table I.

Counter-ions that a name gives are not always drawn.

In general, IC50 refers to the concentration at which inhibition is half-maximal. For the compound `Cc1c(C)c2c(c(C)c1O)CCC(C)(CCCC(C)CCCC(C)CCCC(C)C)O2` (racemic) [DL-α-Tocopherol, reference compound], in assay [1], the IC50 was 10.5 µM. The “Inhibition of the NADPH-induced lipid peroxidation IC50” value in assay [2] is “N.I”.
On to `CC[C@@]12C=C(C(=O)N3CCN(c4cc(N5CCCC5)nc(N5CCCC5)n4)CC3)n3c4c(c5ccccc53)CCN(CCC1)[C@H]42` [Compound 1, 1-(3α,16α)-eburnamenine-14-carbonyl!-4-2,6-bis(pyrrolidino)-4-pyrimidinyl!piperazine], for which, in assay [1], the “antioxidant activity compared with tirilazad mesylate” value is “reaches and even exceeds to some extent the lipid peroxidation-inhibiting effect of tirilazad mesylate”; the IC50 came to 124 µM. This compound returned an IC50 in assay [2] of 24.2 µM.
With `CC[C@@]12C=C(CN3CCN(c4cc(N5CCCC5)nc(N5CCCC5)n4)CC3)n3c4c(c5ccccc53)CCN(CCC1)[C@H]42` [Compound 2, 1-{ (3α,16α)-eburnamenine-14-yl!methyl}-4-2,6-bis(pyrrolidino)-4-pyrimidinyl!piperazine trihydrobromide], in assay [1], the “antioxidant activity compared with tirilazad mesylate” value is “reaches and even exceeds to some extent the lipid peroxidation-inhibiting effect of tirilazad mesylate”; the IC50 is 112 µM. This compound gave an IC50 in assay [2] of 6.2 µM.
As to `CCC12C=C(C(=O)N3CCN(c4cc(N5CCCC5)nc(N5CCCC5)n4)CC3)n3c4c(c5ccccc53)CCN(CCC1)C42` (stereo not drawn) [Compound 3, 1-(16α)-eburnamenine-14-carbonyl!-4-2,6-bis(pyrrolidino)-4-pyrimidinyl!piperazine], in assay [1], the “inhibition of the Fe^2+-induced lipid peroxidation compared with silymarin or ellagic acid” value is “more effectively than the hepatoprotective silymarin or the anticancerogenic ellagic acid”, the “inhibitory effect on the Fe^2+-induced lipid peroxidation compared with DL-α-tocopherol” value was “reaches the antioxidant activity of the therapeutically used DL-α-tocopherol” and the half-inhibitory concentration (IC50) was determined as 11.4 µM. The compound also displayed an IC50 in assay [2] of 2.4 µM.
For `CCC12C=C(C(=O)N3CCN(c4cc(N5CCCC5)nc(N5CCCC5)n4)CC3)n3c4c(c5ccccc53)CCN(CCC1)C42` (stereo not drawn) [Compound 4, 1-(3α)-eburnamenine-14-carbonyl!-4-2,6-bis(pyrrolidino)-4-pyrimidinyl!piperazine] the same measures were “more effectively than the hepatoprotective silymarin or the anticancerogenic ellagic acid”, “reaches the antioxidant activity of the therapeutically used DL-α-tocopherol”, 10.3 µM and 3.1 µM.
`O=c1oc2c(O)c(O)cc3c(=O)oc4c(O)c(O)cc1c4c23` [Ellagic acid, 4,4',5,5',6,6'-hexahydrodiphenic acid 2,6':2',6-dilactone, reference compound]: the IC50 in assay [1] stood at 51 µM; in assay [2], 47.2 µM.
As to `C[C@@H]1C[C@H]2[C@@H]3CCC4=CC(=O)C=C[C@]4(C)C3=CC[C@]2(C)[C@H]1C(=O)CN1CCN(c2cc(N3CCCC3)nc(N3CCCC3)n2)CC1` [Tirilazad mesylate, 16α-methyl-21-{4-2,4-bis(pyrrolidino)6-pyrimidinyl!-1-piperazinyl}-pregna-1,4,9(11)-trien-3,20-dione methanesulfonate, reference compound], the IC50 in assay [1] came out at 135 µM; in assay [2], 121 µM.
